Assay results reported in patent US9290459B1, “Substituted bicyclic dihydropyrimidinones and their use as inhibitors of neutrophil elastase activity” (Boehringer Ingelheim International GmbH, priority 2013, dated 2016).
Converted amounts (≈) assume the structure as drawn.

Experiments:
[1] = Metabolic stability with human liver microsomes; format: in vitro ADME; conditions: for t1/2 INVITRO: pooled human liver microsomes, 1 mg/ml protein, 1 μM test compound, 37° C., NADPH; for half-life at 1 μM: human, microsomes, pH 7.6
[2] = molecular target: Human neutrophil elastase (Homo sapiens (Human), UniProt P08246); assay: Human Neutrophil Elastase Assay; format: biochemical; conditions: human neutrophil elastase, substrate MeOSuc-Ala-Ala-Pro-Val-AMC 250 μM, pH 7.5; read-out: IC50
Sequence of Human neutrophil elastase (P08246 30-247): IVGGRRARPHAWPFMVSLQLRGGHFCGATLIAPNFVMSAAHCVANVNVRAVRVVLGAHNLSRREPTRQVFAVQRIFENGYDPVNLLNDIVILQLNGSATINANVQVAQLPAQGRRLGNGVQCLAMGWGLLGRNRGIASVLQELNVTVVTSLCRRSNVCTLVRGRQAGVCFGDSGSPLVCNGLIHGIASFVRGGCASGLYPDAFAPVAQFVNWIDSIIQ

Aqueous solubility = format: physicochemical; conditions: McIlvaine buffer pH 6.8, 2.5% DMSO, 24 h shaking; for solubility at 24 h: McIlvaine buffer pH 6.8 with 2.5% DMSO, pH 6.8, aqueous buffer, kinetic from dmso stock
Description: Assay for Determination of Aqueous Solubility […] After 24 h of shaking, the solutions or suspensions are filtered and analyzed by LC-UV. The amount dissolved in buffer is compared to the amount dissolved in the acetonitrile/water (1/1) solution.

[3] = Drug transport across human Caco-2 cells; format: in vitro ADME; conditions: human, Caco-2, pH 7.2, Caco-2 monolayers, pH 7.2, 37° C.; for Papp A→B at 10 µM: apical-to-basal, read-out: PEAB; for Papp B→A at 10 µM: basal-to-apical, read-out: PEBA

Row | IC50 [2] [nM] | SMILES | further results
1 | – | CS(=O)(=O)c1cc(C#N)ccc1C1C2=C(CCC2=O)N(c2cccc(C(F)(F)F)c2)C(=O)N1CC(=O)N1CC2CC2C1 (stereo not drawn) [Example 22.4] | t1/2 INVITRO [1]: >2.17 h
2 | 1.7 | CCS(=O)(=O)c1cc(C#N)ccc1C1C2=C(CCC2=O)N(c2cccc(C(F)(F)F)c2)C(=O)N1S(C)(=O)=O (stereo not drawn) [Example 37.4] | half-life at 1 μM [1]: > 2.17 h; solubility at 24 h (Aqueous solubility): 21 µg/mL (≈ 37 µM)
3 | – | CNC(=O)N1C(=O)N(c2cccc(C(F)(F)F)c2)C2=C(C(=O)CC2)C1c1ccc(C#N)cc1OC (stereo not drawn) [Example 50.3] | half-life at 1 μM [1]: > 2.17 h; Papp A→B at 10 µM [3]: 72.4 ×10⁻⁶ cm/s; Papp B→A at 10 µM [3]: 68.1 ×10⁻⁶ cm/s
4 | – | C[S+]([O-])CCNC(=O)N1C(=O)N(c2cccc(C(F)(F)F)c2)C2=C(C(=O)CC2)C1c1ccc(C#N)cc1 (stereo not drawn) [Example 7.6] | t1/2 INVITRO [1]: >2.17 h; Aqueous solubility (Aqueous solubility): 94 µg/mL
5 | – | CN(C)CCNC(=O)N1C(=O)N(c2cccc(C(F)(F)F)c2)C2=C(C(=O)CC2)C1c1ccc(C#N)cc1 (stereo not drawn) [Example 7.5] | Aqueous solubility (Aqueous solubility): 104 µg/mL
6 | – | CN1CC(NC(=O)N2C(=O)N(c3cccc(C(F)(F)F)c3)C3=C(C(=O)CC3)C2c2ccc(C#N)cc2)CC1=O (stereo not drawn) [Example 7.9] | Aqueous solubility (Aqueous solubility): 106 µg/mL
7 | – | N#Cc1ccc([C@@H]2C3=C(CCC3=O)N(c3cccc(C(F)(F)F)c3)C(=O)N2C(=O)NC2CCS(=O)(=O)CC2)cc1 [Example 46, (R)-4-(4-Cyanophenyl)-2,5-dioxo-N-(1,1-dioxo-hexahydro-1λ^6-thiopyran-4-yl)-1-(3-(trifluoromethyl)phenyl)-4,5,6,7-tetrahydro-1H-cyclopenta[d]pyrimidine-3(2H)-carboxamide] | t1/2 INVITRO [1]: >2.17 h; Aqueous solubility (Aqueous solubility): 10 µg/mL
8 | – | CN1C(=O)N(c2cccc(C(F)(F)F)c2)C2=C(C(=O)CC2)[C@H]1c1ccc(C#N)cc1 [Example 2A, (R)-4-(3-Methyl-2,5-dioxo-1-(3-(trifluoromethyl)phenyl)-2,3,4,5,6,7-hexahydro-1H-cyclopenta[d]pyrimidin-4-yl)benzonitrile] | Papp A→B at 10 µM [3]: 87 ×10⁻⁶ cm/s; Papp B→A at 10 µM [3]: 69 ×10⁻⁶ cm/s; solubility at 24 h (Aqueous solubility): 70 µg/mL (≈ 170 µM)
9 | – | CS(=O)(=O)c1cc(C#N)ccc1C1C2=C(CCC2=O)N(c2cccc(C(F)(F)F)c2)C(=O)N1CCCO (stereo not drawn) [Example 24.1] | t1/2 INVITRO [1]: 1.67 h; Aqueous solubility (Aqueous solubility): 64 µg/mL
10 | 6.4 | Cc1cc(C#N)ccc1C1C2=C(CCC2=O)N(c2cccc(C(F)(F)F)c2)C(=O)N1C (stereo not drawn) [Example 26.2] | –
11 | 43.6 | CS(=O)(=O)c1cc(C#N)ccc1C1NC(=O)N(c2ccnc(C(F)(F)F)c2)C2=C1C(=O)CC2 (stereo not drawn) [Example 15.6, 4-(2,5-dioxo-1-(2-(trifluoromethyl)pyridin-4-yl)-2,3,4,5,6,7-hexahydro-1H-cyclopenta[d]-pyrimidin-4-yl)-3-(methylsulfonyl)benzonitrile] | half-life at 1 μM [1]: > 2.17 h; solubility at 24 h (Aqueous solubility): 76 µg/mL (≈ 160 µM)
12 | < 1 | CC(C)(CO)NC(=O)N1C(=O)N(c2cccc(C(F)(F)F)c2)C2=C(C(=O)CC2)[C@H]1c1ccc(C#N)cc1S(C)(=O)=O [Example 47.14] | –
13 | 1.2 | CCNC(=O)N1C(=O)N(c2cccc(C(F)(F)F)c2)C2=C(C(=O)CC2)C1c1ccc(C#N)cc1F (stereo not drawn) [Example 49.1] | –
14 | 124 | CN(C)C(=O)N1C(=O)N(c2cccc(C(F)(F)F)c2)C2=C(C(=O)CC2)C1c1ccc(C#N)cc1 (stereo not drawn) [Example 7, 4-(4-Cyanophenyl)-N,N-dimethyl-2,5-dioxo-1-(3-(trifluoromethyl)phenyl)-4,5,6,7-tetrahydro-1H-cyclopenta[d]pyrimidine-3(2H)-carboxamide] | –
15 | 42.1 | COc1cc(C#N)ccc1C1NC(=O)N(c2cccc(C(F)(F)F)c2)C2=C1C(=O)CC2 (stereo not drawn) [Example 15.1] | –
16 | 106 | N#Cc1ccc(C2NC(=O)N(c3cccc(C(F)(F)F)c3)C3=C2C(=O)CC3)nc1 (stereo not drawn) [Example 15.3, 6-(2,5-dioxo-1-(3-(trifluoromethyl)phenyl)-2,3,4,5,6,7-hexahydro-1H-cyclopenta[d]pyrimidin-4-yl)nicotinonitrile] | –
17 | 1.2 | CNC(=O)N1C(=O)N(c2cccc(C(F)(F)F)c2)C2=C(C(=O)CC2)C1c1ccc(C#N)cc1Cl (stereo not drawn) [Example 50.4] | –
18 | 1.8 | CNC(=O)N1C(=O)N(c2cccc(C(F)(F)F)c2)C2=C(C(=O)CC2)C1c1ccc(C#N)cc1F (stereo not drawn) [Example 49, 4-(4-Cyano-2-fluorophenyl)-N-methyl-2,5-dioxo-1-(3-(trifluoromethyl)phenyl)-4,5,6,7-tetrahydro-1H-cyclopenta[d]pyrimidine-3(2H)-carboxamide] | –
19 | 14.9 | CSc1cc(C#N)ccc1C1NC(=O)N(c2cccc(C(F)(F)F)c2)C2=C1C(=O)CC2 (stereo not drawn) [Example 16, 4-(2,5-Dioxo-1-(3-(trifluoromethyl)phenyl)-2,3,4,5,6,7-hexahydro-1H-cyclopenta[d]-pyrimidin-4-yl)-3-(methylthio)benzonitrile] | –
20 | 40.4 | CC(C)(O)CNC(=O)N1C(=O)N(c2cccc(C(F)(F)F)c2)C2=C(C(=O)CC2)[C@@H]1c1ccc(C#N)cc1 [Example 41B, (S)-4-(4-Cyanophenyl)-N-(2-hydroxy-2-methylpropyl)-2,5-dioxo-1-(3-(trifluoro-methyl)phenyl)-4,5,6,7-tetrahydro-1H-cyclopenta[d]pyrimidine-3(2H)-carboxamide] | –
21 | < 1 | N#Cc1ccc(C2C3=C(CCC3=O)N(c3cccc(C(F)(F)F)c3)C(=O)N2C(=O)NC2CC[S+]([O-])CC2)cc1 (stereo not drawn) [Example 43, 4-(4-Cyanophenyl)-2,5-dioxo-N-(1-oxo-hexahydro-1λ^4-thiopyran-4-yl)-1-(3-(trifluoro-methyl)phenyl)-4,5,6,7-tetrahydro-1H-cyclopenta[d]pyrimidine-3(2H)-carboxamide] | –
22 | 3410 | CN1C(=O)N(c2cccc(C(F)F)c2)C2=C(C(=O)CC2)[C@@H]1c1ccc(C#N)cc1 [Example 26B, (S)-4-(1-(3-(Difluoromethyl)phenyl)-3-methyl-2,5-dioxo-2,3,4,5,6,7-hexahydro-1H-cyclopenta[d]pyrimidin-4-yl)benzonitrile] | –
23 | < 1 | CCNC(=O)N1C(=O)N(c2cccc(C(F)(F)F)c2)C2=C(C(=O)CC2)C1c1ccc(C#N)cc1[S+](C)[O-] (stereo not drawn) [Example 51.4] | –
24 | < 1 | CS(=O)(=O)c1cc(C#N)ccc1[C@@H]1C2=C(CCC2=O)N(c2cccc(C(F)(F)F)c2)C(=O)N1C(=O)NCC1CC(O)C1 (stereo partly drawn) [Example 47.16] | –
25 | < 1 | CS(=O)(=O)c1cc(C#N)ccc1C1C2=C(CCC2=O)N(c2cccc(C(F)(F)F)c2)C(=O)N1CCC1CCOCC1 (stereo not drawn) [Example 24.6] | –
26 | 9.5 | COc1cc(C#N)ccc1C1C2=C(CCC2=O)N(c2cccc(C(F)(F)F)c2)C(=O)N1C (stereo not drawn) [Example 26.3] | –
27 | 201 | N#Cc1ccc(C2NC(=O)N(c3cccc(C(F)(F)F)c3)C3=C2C(=O)CC3)cn1 (stereo not drawn) [Example 12, 5-(2,5-Dioxo-1-(3-(trifluoromethyl)phenyl)-2,3,4,5,6,7-hexahydro-1H-cyclopenta[d]-pyrimidin-4-yl)picolinonitrile] | –

Row | SMILES | IC50 [2] [nM] | further results
28 | CS(=O)(=O)c1cc(C#N)ccc1[C@@H]1C2=C(CCC2=O)N(c2cccc(C(F)(F)F)c2)C(=O)N1C(=O)N[C@H]1CCCC[C@@H]1O [Example 47.21] | < 1 | –
